From ChEMBL document CHEMBL5465560, “Selectivity Literature for EUbOPEN Chemogenomic Library” (2024)
Values belong to the compound of their own block, whether it stands above or below them.

How the values were obtained:
[1] = molecular target: T1, Inhibitor of nuclear factor kappa-B kinase subunit epsilon (Homo sapiens) (UniProt Q14164); conditions: at 10 µM
T1 sequence (whole entry): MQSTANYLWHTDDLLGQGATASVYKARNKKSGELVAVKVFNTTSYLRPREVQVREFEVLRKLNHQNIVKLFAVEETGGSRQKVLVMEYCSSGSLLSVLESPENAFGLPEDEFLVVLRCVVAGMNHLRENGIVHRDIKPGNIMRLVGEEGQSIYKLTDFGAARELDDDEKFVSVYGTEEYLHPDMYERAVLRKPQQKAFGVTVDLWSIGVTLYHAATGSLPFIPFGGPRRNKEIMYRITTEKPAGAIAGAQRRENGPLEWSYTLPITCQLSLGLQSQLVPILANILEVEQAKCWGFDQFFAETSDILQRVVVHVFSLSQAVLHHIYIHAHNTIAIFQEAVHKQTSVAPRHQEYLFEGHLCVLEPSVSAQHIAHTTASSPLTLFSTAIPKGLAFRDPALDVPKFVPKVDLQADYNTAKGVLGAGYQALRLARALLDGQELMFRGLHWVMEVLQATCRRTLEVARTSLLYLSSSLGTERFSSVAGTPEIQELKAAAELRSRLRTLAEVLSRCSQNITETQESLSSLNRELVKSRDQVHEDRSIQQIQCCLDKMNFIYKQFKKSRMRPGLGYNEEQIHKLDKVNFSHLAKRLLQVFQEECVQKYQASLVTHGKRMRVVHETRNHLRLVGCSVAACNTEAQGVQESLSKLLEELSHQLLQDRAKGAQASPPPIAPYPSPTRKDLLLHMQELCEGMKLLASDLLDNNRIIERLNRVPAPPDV

Insulin receptor = Insulin receptor (Homo sapiens, UniProt P06213); experiment: Selectivity interaction (Kinase panel (literature)) EUB0001199aCl INSR; conditions: at 1 µM
[2] = molecular target: T2, Serine/threonine-protein kinase TBK1 (Homo sapiens) (UniProt Q9UHD2); experiment: Selectivity interaction (KinomeScan (DiscoverX)) EUB0001079a TBK1; conditions: at 1 µM
T2 sequence (whole entry): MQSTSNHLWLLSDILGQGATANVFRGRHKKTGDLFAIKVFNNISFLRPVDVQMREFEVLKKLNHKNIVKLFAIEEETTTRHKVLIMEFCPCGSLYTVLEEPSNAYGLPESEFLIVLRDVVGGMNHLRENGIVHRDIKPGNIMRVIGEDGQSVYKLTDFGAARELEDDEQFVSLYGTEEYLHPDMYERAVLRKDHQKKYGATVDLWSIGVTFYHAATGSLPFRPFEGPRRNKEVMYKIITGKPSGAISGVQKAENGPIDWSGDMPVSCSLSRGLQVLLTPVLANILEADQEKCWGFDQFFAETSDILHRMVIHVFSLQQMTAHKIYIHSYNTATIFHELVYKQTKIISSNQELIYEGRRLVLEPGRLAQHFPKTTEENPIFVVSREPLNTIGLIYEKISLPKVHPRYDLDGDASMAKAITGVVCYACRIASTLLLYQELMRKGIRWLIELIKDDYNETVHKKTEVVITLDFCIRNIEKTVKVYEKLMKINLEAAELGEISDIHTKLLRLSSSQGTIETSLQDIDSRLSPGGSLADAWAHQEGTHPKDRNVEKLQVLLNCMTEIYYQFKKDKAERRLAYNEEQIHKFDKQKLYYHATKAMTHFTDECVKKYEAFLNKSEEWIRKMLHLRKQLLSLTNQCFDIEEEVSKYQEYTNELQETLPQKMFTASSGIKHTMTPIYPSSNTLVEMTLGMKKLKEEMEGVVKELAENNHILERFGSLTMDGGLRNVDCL

[3] = molecular target: T3, Activin receptor type-1B (Homo sapiens) (UniProt P36896); experiment: Selectivity interaction (SelectScreen profiling (Invitrogen)) EUB0000607a ACVR1B; conditions: at 2 µM
T3 sequence (whole entry): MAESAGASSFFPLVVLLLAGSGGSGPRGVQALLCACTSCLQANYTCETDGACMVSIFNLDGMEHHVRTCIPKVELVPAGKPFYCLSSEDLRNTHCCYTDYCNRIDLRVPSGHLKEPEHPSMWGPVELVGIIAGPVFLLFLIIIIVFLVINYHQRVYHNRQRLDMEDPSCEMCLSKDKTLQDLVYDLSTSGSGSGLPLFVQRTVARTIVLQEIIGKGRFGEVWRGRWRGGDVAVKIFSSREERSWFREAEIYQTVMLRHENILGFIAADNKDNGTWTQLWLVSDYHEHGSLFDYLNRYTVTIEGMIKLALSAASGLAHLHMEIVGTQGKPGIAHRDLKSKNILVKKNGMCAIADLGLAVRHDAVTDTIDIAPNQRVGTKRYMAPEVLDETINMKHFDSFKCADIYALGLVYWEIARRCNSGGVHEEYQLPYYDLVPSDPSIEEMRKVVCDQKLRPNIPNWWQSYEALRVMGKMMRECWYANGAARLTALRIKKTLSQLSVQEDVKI

[4] = molecular target: Cyclin-dependent kinase 11B (Homo sapiens) (UniProt P21127); experiment: Selectivity interaction (KinomeScan (DiscoverX)) EUB0000607a CDK11B; conditions: at 10 µM
[5] = molecular target: Serine/threonine-protein kinase MRCK beta (Homo sapiens) (UniProt Q9Y5S2); experiment: Selectivity interaction (KinomeScan (DiscoverX)) EUB0000045b CDC42BPB
[6] = molecular target: T4, Mitogen-activated protein kinase kinase kinase 3 (Homo sapiens) (UniProt Q99759); experiment: Selectivity interaction (KinomeScan (DiscoverX)) EUB0000595a MAP3K3; conditions: at 10 µM
T4 sequence (whole entry): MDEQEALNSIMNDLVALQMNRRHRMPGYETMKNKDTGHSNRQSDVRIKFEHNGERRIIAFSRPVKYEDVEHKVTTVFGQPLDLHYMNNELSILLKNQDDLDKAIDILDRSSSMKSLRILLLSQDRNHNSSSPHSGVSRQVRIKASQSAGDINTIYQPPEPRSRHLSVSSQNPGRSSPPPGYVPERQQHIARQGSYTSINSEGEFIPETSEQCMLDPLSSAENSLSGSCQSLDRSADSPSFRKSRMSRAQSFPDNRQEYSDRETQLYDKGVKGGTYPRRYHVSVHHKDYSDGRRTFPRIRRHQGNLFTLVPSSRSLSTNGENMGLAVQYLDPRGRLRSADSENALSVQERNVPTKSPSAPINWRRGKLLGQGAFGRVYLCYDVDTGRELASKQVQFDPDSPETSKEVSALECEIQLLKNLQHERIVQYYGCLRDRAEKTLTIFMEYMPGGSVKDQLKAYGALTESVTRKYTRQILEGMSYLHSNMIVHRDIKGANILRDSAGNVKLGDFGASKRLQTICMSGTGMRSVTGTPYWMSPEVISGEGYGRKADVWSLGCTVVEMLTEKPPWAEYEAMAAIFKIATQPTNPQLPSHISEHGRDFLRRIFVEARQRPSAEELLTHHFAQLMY

[7] = molecular target: Tyrosine-protein kinase receptor UFO (Homo sapiens) (UniProt P30530); experiment: Selectivity interaction (KinomeScan (DiscoverX)) EUB0000092b AXL; conditions: at 10 µM
[8] = molecular target: Tyrosine-protein kinase Blk (Homo sapiens) (UniProt P51451); experiment: Selectivity interaction (Kinase panel (Z-LYTE Assay)) EUB0001632a BLK; conditions: at 10 µM
Tyrosine-protein kinase Blk (Homo sapiens), sequence (P51451 2-505 limits assumed): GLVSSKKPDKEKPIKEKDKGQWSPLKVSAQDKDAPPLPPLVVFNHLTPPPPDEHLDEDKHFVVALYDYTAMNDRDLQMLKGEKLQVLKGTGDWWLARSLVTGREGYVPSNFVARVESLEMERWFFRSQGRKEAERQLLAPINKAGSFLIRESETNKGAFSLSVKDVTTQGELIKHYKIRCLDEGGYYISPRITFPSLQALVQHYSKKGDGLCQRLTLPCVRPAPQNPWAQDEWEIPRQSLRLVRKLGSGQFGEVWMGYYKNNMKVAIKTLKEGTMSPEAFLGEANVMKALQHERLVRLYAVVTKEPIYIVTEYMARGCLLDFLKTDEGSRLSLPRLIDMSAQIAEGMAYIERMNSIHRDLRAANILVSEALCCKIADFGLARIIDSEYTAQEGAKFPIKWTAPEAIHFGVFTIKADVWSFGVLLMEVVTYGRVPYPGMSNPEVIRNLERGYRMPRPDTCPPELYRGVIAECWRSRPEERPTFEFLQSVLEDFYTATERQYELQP

Serine/threonine-protein kinase MRCK beta (Homo sapiens), sequence (Q9Y5S2 whole entry): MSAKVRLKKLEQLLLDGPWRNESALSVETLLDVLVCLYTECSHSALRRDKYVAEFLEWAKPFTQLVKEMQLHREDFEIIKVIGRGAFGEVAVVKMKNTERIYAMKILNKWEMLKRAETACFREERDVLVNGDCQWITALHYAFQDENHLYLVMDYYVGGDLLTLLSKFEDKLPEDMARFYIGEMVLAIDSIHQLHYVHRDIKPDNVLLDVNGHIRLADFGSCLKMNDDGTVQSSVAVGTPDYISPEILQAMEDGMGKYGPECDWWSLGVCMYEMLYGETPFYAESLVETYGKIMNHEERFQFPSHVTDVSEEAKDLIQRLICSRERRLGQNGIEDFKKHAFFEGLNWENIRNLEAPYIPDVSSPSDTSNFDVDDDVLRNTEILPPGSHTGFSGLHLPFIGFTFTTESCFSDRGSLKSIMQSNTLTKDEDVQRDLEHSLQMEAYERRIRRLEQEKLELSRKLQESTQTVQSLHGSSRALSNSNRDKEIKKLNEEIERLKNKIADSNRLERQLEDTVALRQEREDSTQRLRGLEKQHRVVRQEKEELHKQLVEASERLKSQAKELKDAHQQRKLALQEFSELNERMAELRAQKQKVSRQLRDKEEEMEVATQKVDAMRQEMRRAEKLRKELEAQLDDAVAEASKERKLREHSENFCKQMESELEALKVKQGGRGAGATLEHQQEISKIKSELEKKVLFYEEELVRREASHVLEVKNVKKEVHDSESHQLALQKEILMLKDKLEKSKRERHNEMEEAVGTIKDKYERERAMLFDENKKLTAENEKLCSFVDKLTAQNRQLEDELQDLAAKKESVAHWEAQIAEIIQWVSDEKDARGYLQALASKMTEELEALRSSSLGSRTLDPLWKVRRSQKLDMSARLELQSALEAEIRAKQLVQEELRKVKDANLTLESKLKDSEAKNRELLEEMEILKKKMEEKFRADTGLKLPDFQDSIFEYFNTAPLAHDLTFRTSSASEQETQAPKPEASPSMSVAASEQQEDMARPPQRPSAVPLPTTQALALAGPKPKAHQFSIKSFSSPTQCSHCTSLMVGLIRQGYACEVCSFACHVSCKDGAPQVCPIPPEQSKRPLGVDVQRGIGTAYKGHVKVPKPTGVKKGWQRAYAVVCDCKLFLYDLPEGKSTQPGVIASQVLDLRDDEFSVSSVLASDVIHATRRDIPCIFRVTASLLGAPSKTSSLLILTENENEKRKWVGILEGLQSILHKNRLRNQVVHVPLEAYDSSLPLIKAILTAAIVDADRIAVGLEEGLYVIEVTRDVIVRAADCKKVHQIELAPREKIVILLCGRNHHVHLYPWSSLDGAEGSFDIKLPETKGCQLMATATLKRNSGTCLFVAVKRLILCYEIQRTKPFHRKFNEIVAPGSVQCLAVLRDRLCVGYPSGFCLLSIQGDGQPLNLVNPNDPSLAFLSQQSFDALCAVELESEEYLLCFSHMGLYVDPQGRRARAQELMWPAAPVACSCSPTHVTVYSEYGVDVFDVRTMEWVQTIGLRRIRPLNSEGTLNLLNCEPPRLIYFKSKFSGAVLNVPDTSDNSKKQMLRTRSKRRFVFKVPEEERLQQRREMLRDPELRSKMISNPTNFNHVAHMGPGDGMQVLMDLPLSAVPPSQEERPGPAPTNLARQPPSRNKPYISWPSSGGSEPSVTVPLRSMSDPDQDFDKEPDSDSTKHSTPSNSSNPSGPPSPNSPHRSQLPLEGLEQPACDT
Tyrosine-protein kinase receptor UFO (Homo sapiens), sequence (P30530 whole entry): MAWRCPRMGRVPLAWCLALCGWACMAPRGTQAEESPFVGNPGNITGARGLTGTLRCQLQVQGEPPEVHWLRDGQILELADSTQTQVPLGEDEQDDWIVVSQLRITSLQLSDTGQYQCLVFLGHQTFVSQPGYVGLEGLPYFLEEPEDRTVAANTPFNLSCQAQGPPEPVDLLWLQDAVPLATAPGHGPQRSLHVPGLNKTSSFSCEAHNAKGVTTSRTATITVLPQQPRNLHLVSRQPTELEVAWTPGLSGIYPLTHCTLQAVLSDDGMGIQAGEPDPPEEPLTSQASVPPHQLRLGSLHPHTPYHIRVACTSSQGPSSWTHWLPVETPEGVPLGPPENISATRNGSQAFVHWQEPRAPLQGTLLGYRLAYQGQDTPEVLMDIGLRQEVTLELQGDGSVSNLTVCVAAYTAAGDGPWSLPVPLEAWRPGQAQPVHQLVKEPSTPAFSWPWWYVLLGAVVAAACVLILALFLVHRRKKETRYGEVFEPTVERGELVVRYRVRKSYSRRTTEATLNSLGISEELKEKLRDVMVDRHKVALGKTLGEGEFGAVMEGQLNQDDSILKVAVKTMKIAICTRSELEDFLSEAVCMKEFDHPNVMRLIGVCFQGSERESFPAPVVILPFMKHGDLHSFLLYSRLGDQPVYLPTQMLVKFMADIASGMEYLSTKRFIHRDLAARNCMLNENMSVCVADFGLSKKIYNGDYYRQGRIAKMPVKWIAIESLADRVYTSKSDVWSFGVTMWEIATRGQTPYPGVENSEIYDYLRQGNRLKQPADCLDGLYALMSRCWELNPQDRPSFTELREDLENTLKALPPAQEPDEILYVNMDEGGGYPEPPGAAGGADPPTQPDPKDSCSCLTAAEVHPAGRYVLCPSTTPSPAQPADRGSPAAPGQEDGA
Cyclin-dependent kinase 11B (Homo sapiens), sequence (P21127 whole entry): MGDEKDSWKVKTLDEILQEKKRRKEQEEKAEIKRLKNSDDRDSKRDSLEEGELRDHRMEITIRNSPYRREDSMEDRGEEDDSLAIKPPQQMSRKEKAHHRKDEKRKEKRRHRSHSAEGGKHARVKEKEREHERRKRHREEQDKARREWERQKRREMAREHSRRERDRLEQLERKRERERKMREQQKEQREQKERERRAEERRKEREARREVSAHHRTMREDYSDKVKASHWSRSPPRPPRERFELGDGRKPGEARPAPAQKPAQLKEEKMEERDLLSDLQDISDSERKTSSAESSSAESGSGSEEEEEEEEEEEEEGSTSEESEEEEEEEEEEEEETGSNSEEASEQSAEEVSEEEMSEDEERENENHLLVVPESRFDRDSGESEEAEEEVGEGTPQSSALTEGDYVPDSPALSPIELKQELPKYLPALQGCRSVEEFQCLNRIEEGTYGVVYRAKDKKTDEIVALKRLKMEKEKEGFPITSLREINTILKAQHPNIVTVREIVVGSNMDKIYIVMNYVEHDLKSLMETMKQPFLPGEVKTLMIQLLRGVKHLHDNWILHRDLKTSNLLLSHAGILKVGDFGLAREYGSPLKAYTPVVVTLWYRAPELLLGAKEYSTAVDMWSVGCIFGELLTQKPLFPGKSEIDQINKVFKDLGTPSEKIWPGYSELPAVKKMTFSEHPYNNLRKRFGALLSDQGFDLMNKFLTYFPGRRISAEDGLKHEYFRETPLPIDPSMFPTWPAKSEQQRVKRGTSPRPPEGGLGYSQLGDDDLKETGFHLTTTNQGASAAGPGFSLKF

% of control [1]: 100%
Compound: CCN(CC)CCCCNc1ncc2cc(-c3cc(OC)cc(OC)c3)c(NC(=O)NC(C)(C)C)nc2n1

% of inhibition (Insulin receptor): 3%
Compound: CN1Cc2nccc(-c3cn(C)nc3-c3ccc(F)cc3)c2C1=O

Compound: Nc1cnc(N2CCc3cc(S(=O)(=O)Nc4c(F)cc(Cl)cc4F)cc(N4CCCC4=O)c32)nc1 [TP-020n]
% of control [2]: 85%

Compound: CNC(=O)Nc1ccc(-c2nc(N3CC4CCC(C3)O4)c3cnn(C4CCC5(CC4)OCCO5)c3n2)cc1
% of inhibition [3]: 3%
% of control [4]: 100%

Compound: C=CC(=O)Nc1cc(-n2c(=O)ccc3cnc4ccc(-c5ccc(NS(C)(=O)=O)cc5)cc4c32)ccc1C
% of control ([5]; at 1 µM): 100%
% of control ([5]; at 10 µM): 100%

Compound: COCC(=O)NC/C=C/c1ccc2ncnc(Nc3ccc(Oc4ccc(C)nc4)c(C)c3)c2c1 [CP-724714]
% of control [6]: 100%

Compound: CCC(=O)N1CCN(c2ccc(-n3c(=O)ccc4cnc5ccc(-c6cnc7ccccc7c6)cc5c43)cc2C(F)(F)F)CC1
% of control [7]: 46%

% of control [8]: 6.49%
Compound: Cn1cc(-n2cnc3c(NCc4nc5cc(Cl)c(Cl)cc5[nH]4)nc(N4CCOCC4)nc32)cn1
